Assay results from patent US20210395256A1, “TYROSINE KINASE INHIBITORS, COMPOSITIONS AND METHODS THERE OF” (Betta Pharmaceuticals Co., Ltd., priority 2018, published 2021).
Where two headings read alike, the source gives them in different places.

Biological target: TrkA kinase (Homo sapiens, UniProt P04629)
Experiment: TrkA kinase assay (mobility shift assay)
Format: biochemical
Settings: read-out: Trk A Kinase IC50
In short: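 Ten-point compound series was preincubated 10 min at room temperature with TrkA, then FAM-peptide plus ATP added in HEPES pH 7.5/Brij-35 buffer and reacted at 28 °C before EDTA quench.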

TrkA kinase, sequence (P04629 33-796): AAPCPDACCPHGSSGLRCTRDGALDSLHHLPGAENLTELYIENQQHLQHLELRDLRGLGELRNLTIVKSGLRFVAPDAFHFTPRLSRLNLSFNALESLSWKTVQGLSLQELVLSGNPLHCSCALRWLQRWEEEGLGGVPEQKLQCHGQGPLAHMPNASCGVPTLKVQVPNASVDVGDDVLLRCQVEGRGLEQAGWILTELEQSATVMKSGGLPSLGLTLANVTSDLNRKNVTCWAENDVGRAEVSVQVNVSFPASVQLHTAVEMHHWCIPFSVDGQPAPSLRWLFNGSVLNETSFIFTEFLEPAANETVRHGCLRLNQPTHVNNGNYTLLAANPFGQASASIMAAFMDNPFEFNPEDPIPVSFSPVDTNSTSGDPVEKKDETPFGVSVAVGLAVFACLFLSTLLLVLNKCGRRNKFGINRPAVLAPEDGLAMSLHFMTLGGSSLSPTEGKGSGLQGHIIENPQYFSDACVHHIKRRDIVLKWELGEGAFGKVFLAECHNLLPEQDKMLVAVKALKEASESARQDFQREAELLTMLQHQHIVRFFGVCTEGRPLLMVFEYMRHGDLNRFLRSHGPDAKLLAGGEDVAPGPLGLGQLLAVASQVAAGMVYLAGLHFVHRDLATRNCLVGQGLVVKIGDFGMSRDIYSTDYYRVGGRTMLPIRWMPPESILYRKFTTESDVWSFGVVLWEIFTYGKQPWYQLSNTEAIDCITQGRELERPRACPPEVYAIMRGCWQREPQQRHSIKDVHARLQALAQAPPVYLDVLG

SMILES | IC50 (class symbols) [nM] | IC50 (numeric values) [nM]
Fc1ccc(F)c([C@H]2CCCN2c2ccn3ncc(-c4nnc(-c5ccc(N6CCOCC6)cc5)[nH]4)c3n2)c1 [Compound 1, (R)-4-(4-(5-(5-(2-(2,5-difluorophenyl)pyrrolidin-1-yl)pyrazolo[1,5-a]pyrimidin-3-yl)-4H-1,2,4-triazol-3-yl)phenyl)morpholine] | ≤ 10 | 
OC1CCN(c2cc(-c3nnc(-c4cnn5ccc(N6CCC[C@@H]6c6cc(F)ccc6F)nc45)[nH]3)ccn2)CC1 [Compound 2, (R)-1-(4-(5-(5-(2-(2,5-difluorophenyl)pyrrolidin-1-yl)pyrazolo[1,5-a]pyrimidin-3-yl)-4H-1,2,4-triazol-3-yl)pyridin-2-yl)piperidin-4-ol] |  | 0.43
C[C@](O)(c1nnc(-c2cnn3ccc(N4CCC[C@@H]4c4cc(F)ccc4F)nc23)[nH]1)C(F)(F)F [Compound 25, (S)-2-(5-(5-((R)-2-(2,5-difluorophenyl)pyrrolidin-1-yl)pyrazolo[1,5-a]pyrimidin-3-yl)-4H-1,2,4-triazol-3-yl)-1,1,1-trifluoropropan-2-ol] | 10 to 50 | 
CC(C)(CO)c1nnc(-c2cnn3ccc(N4CCC[C@@H]4c4cc(F)ccc4F)nc23)[nH]1 [Compound 33, (R)-2-(5-(5-(2-(2,5-difluorophenyl)pyrrolidin-1-yl)pyrazolo[1,5-a]pyrimidin-3-yl)-4H-1,2,4-triazol-3-yl)-2-methylpropan-1-ol] |  | 2.41
Fc1ccc(F)c([C@H]2CCCN2c2ccn3ncc(-c4nnc(C5COCCN5)[nH]4)c3n2)c1 (stereo partly drawn) [Compound 49, 3-(5-(5-((R)-2-(2,5-difluorophenyl)pyrrolidin-1-yl)pyrazolo[1,5-a]pyrimidin-3-yl)-4H-1,2,4-triazol-3-yl)morpholine] |  | 6.4
Fc1ccc(F)c([C@H]2CCCN2c2ccn3ncc(-c4nnc(-c5ccc6cn[nH]c6c5)[nH]4)c3n2)c1 [Compound 59, (R)-3-(5-(1H-indazol-6-yl)-4H-1,2,4-triazol-3-yl)-5-(2-(2,5-difluorophenyl)pyrrolidin-1-yl)pyrazolo[1,5-a]pyrimidine] | ≤ 10 | 
OC1CC[C@H](c2nnc(-c3cnn4ccc(N5CCC[C@@H]5c5cc(F)ccc5F)nc34)[nH]2)C1 (stereo partly drawn) [Compound 19, (3S)-3-(5-(5-((R)-2-(2,5-difluorophenyl)pyrrolidin-1-yl)pyrazolo[1,5-a]pyrimidin-3-yl)-4H-1,2,4-triazol-3-yl)cyclopentan-1-ol] | ≤ 10 | 
Oc1ncnc2nc(-c3cnn4ccc(N5CCC[C@@H]5c5cc(F)ccc5F)nc34)[nH]c12 [Compound 88, (R)-8-(5-(2-(2,5-difluorophenyl)pyrrolidin-1-yl)pyrazolo[1,5-a]pyrimidin-3-yl)-7H-purin-6-ol] |  | 0.77
Fc1ccc(F)c([C@H]2CCCN2c2ccn3ncc(-c4nc5ccc(N6CCN7CCC[C@@H]7C6)cc5s4)c3n2)c1 [Compound 63, 2-(5-((R)-2-(2,5-difluorophenyl)pyrrolidin-1-yl)pyrazolo[1,5-a]pyrimidin-3-yl)-6-((R)-hexahydropyrrolo[1,2-a]pyrazin-2(1H)-yl)benzo[d]thiazole] | > 50 | 
O[C@H]1CC[C@@H](c2nnc(-c3cnn4ccc(N5CCC[C@@H]5c5cc(F)ccc5F)nc34)[nH]2)CC1 [Compound 5, (1S,4s)-4-(5-(5-((R)-2-(2,5-difluorophenyl)pyrrolidin-1-yl)pyrazolo[1,5-a]pyrimidin-3-yl)-4H-1,2,4-triazol-3-yl)cyclohexan-1-ol] |  | 1.8
CN1CCN(c2ccc(-c3nnc(-c4cnn5ccc(N6CCC[C@@H]6c6cc(F)ccc6F)nc45)[nH]3)cn2)CC1 [Compound 54, (R)-5-(2-(2,5-difluorophenyl)pyrrolidin-1-yl)-3-(5-(6-(4-methylpiperazin-1-yl)pyridin-3-yl)-4H-1,2,4-triazol-3-yl)pyrazolo[1,5-a]pyrimidine] |  | 1.17
Cn1c(-c2cnn3ccc(N4CCC[C@@H]4c4cc(F)ccc4F)nc23)nc2cc3c(cc21)OCCO3 [Compound 83, (R)-2-(5-(2-(2,5-difluorophenyl)pyrrolidin-1-yl)pyrazolo[1,5-a]pyrimidin-3-yl)-1-methyl-6,7-dihydro-1H-[1,4]dioxino[2′,3′:4,5]benzo[1,2-d]imidazole] | > 50 | 
NC12CC(c3nnc(-c4cnn5ccc(N6CCC[C@@H]6c6cc(F)ccc6F)nc45)[nH]3)(C1)C2 [Compound 44, (R)-3-(5-(5-(2-(2,5-difluorophenyl)pyrrolidin-1-yl)pyrazolo[1,5-a]pyrimidin-3-yl)-4H-1,2,4-triazol-3-yl)bicyclo[1.1.1]pentan-1-amine] |  | 5.28
OB1OCc2ccc(-c3nnc(-c4cnn5ccc(N6CCC[C@@H]6c6cc(F)ccc6F)nc45)[nH]3)cc21 [Compound 45, (R)-6-(5-(5-(2-(2,5-difluorophenyl)pyrrolidin-1-yl)pyrazolo[1,5-a]pyrimidin-3-yl)-4H-1,2,4-triazol-3-yl)benzo[c][1,2]oxaborol-1(3H)-ol] |  | 0.8
Cn1c(-c2ccnc(N3CCC(O)CC3)c2)nnc1-c1cnn2ccc(N3CCC[C@@H]3c3cc(F)ccc3F)nc12 [Compound 21, (R)-1-(4-(5-(5-(2-(2,5-difluorophenyl)pyrrolidin-1-yl)pyrazolo[1,5-a]pyrimidin-3-yl)-4-methyl-4H-1,2,4-triazol-3-yl)pyridin-2-yl)piperidin-4-ol] | > 50 | 
Fc1ccc(F)c([C@H]2CCCN2c2ccn3ncc(-c4nc5cnccc5s4)c3n2)c1 [Compound 75, (R)-2-(5-(2-(2,5-difluorophenyl)pyrrolidin-1-yl)pyrazolo[1,5-a]pyrimidin-3-yl)thiazolo[4,5-c]pyridine] | ≤ 10 | 
Fc1ccc(F)c([C@H]2CCCN2c2ccn3ncc(-c4nnc(-c5ccc6ncccc6c5)[nH]4)c3n2)c1 [Compound 56, (R)-6-(5-(5-(2-(2,5-difluorophenyl)pyrrolidin-1-yl)pyrazolo[1,5-a]pyrimidin-3-yl)-4H-1,2,4-triazol-3-yl)quinoline] |  | 1.2

More lines, now with the values ahead:

IC50 (class symbols) [nM] | IC50 (numeric values) [nM] | SMILES
≤ 10 |  | COc1cc2nc(-c3cnn4ccc(N5CCC[C@@H]5c5cc(F)ccc5F)nc34)oc2cc1OC [Compound 120, (R)-2-(5-(2-(2,5-difluorophenyl)pyrrolidin-1-yl)pyrazolo[1,5-a]pyrimidin-3-yl)-5,6-dimethoxybenzo[d]oxazole]
≤ 10 |  | COC(=O)c1c(F)ccc2nc(-c3cnn4ccc(N5CCC[C@@H]5c5cc(F)ccc5F)nc34)[nH]c12 [Compound 158, methyl (R)-2-(5-(2-(2,5-difluorophenyl)pyrrolidin-1-yl)pyrazolo[1,5-a]pyrimidin-3-yl)-6-fluoro-1H-benzo[d]imidazole-7-carboxylate]
≤ 10 |  | Fc1ccc(F)c([C@H]2CCCN2c2ccn3ncc(-c4nc5nccnc5[nH]4)c3n2)c1 [Compound 128, (R)-2-(5-(2-(2,5-difluorophenyl)pyrrolidin-1-yl)pyrazolo[1,5-a]pyrimidin-3-yl)-1H-imidazo[4,5-b]pyrazine]
10 to 50 |  | Oc1ccc2cc(-c3cnn4ccc(N5CCC[C@@H]5c5cc(F)ccc5F)nc34)[nH]c2c1 [Compound 186, (R)-2-(5-(2-(2,5-difluorophenyl)pyrrolidin-1-yl)pyrazolo[1,5-a]pyrimidin-3-yl)-1H-indol-6-ol]
≤ 10 |  | Fc1ccc(F)c([C@H]2CCCN2c2ccn3ncc(-c4nc5c(s4)CNCC5)c3n2)c1 [Compound 190, (R)-2-(5-(2-(2,5-difluorophenyl)pyrrolidin-1-yl)pyrazolo[1,5-a]pyrimidin-3-yl)-4,5,6,7-tetrahydrothiazolo[5,4-c]pyridine]
 | 20.4 | Fc1ccc(F)c([C@H]2CCCN2c2ccn3ncc(-c4cc5ccc(F)cc5[nH]4)c3n2)c1 [Compound 183, (R)-5-(2-(2,5-difluorophenyl)pyrrolidin-1-yl)-3-(6-fluoro-1H-indol-2-yl)pyrazolo[1,5-a]pyrimidine]
≤ 10 |  | N#Cc1cc2nc(-c3cnn4ccc(N5CCC[C@@H]5c5cc(F)ccc5F)nc34)[nH]c2cc1O [Compound 149, (R)-2-(5-(2-(2,5-difluorophenyl)pyrrolidin-1-yl)pyrazolo[1,5-a]pyrimidin-3-yl)-6-hydroxy-1H-benzo[d]imidazole-5-carbonitrile]
≤ 10 |  | N#Cc1cc2nc(-c3cnn4ccc(N5CCC[C@@H]5c5cc(F)ccc5F)nc34)[nH]c2cc1C(N)=O [Compound 154, (R)-5-cyano-2-(5-(2-(2,5-difluorophenyl)pyrrolidin-1-yl)pyrazolo[1,5-a]pyrimidin-3-yl)-1H-benzo[d]imidazole-6-carboxamide]
≤ 10 |  | CS(=O)(=O)c1ccc2nc(-c3cnn4ccc(N5CCC[C@@H]5c5cc(F)ccc5F)nc34)[nH]c2c1 [Compound 170, (R)-5-(2-(2,5-difluorophenyl)pyrrolidin-1-yl)-3-(6-(methylsulfonyl)-1H-benzo[d]imidazol-2-yl)pyrazolo[1,5-a]pyrimidine]
 | 13.5 | Fc1ccc(F)c([C@H]2CCCN2c2ccn3ncc(-c4nc5c(Cl)ccc(Cl)c5[nH]4)c3n2)c1 [Compound 104, (R)-3-(4,7-dichloro-1H-benzo[d]imidazol-2-yl)-5-(2-(2,5-difluorophenyl)pyrrolidin-1-yl)pyrazolo[1,5-a]pyrimidine]
 | 6.7 | Fc1ccc(F)c([C@H]2CCCN2c2ccn3ncc(-c4nc5cccc(OC(F)(F)F)c5[nH]4)c3n2)c1 [Compound 113, (R)-5-(2-(2,5-difluorophenyl)pyrrolidin-1-yl)-3-(7-(trifluoromethoxy)-1H-benzo[d]imidazol-2-yl)pyrazolo[1,5-a]pyrimidine]
10 to 50 |  | COc1cc2nc(-c3cnn4ccc(N5CCC[C@@H]5c5cc(F)ccc5F)nc34)cn2cc1OC [Compound 199, (R)-5-(2-(2,5-difluorophenyl)pyrrolidin-1-yl)-3-(6,7-dimethoxyimidazo[1,2-a]pyridin-2-yl)pyrazolo[1,5-a]pyrimidine]
10 to 50 |  | Fc1ccc(F)c([C@H]2CCCN2c2ccn3ncc(-c4nc5cc6c(cc5o4)OCO6)c3n2)c1 [Compound 131, (R)-6-(5-(2-(2,5-difluorophenyl)pyrrolidin-1-yl)pyrazolo[1,5-a]pyrimidin-3-yl)-[1,3]dioxolo[4′,5′:4,5]benzo[1,2-d]oxazole]
